Results from patent US20240254129A1, “HETEROCYCLIC COMPOUNDS AND USES THEREOF” (Kumquat Biosciences Inc., priority 2021, published 2024).

Tests used:
[1] = target: GST-tagged K-Ras mutant / His-tagged hSOS1 (Homo sapiens, UniProt P01116); assay: HTRF assay, K-Ras mutant / SOS1 interaction; assay type: binding; settings: compound nos. 401-703; read-out: IC50 against mutant Kras
Method in brief: (§1)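 HTRF read-out (ex 337, em 620 and 665 nm) of Ras–SOS1 equilibrium binding: Eu-anti-GST on GST-K-Ras, XL665-anti-6His on His-hSOS1. Incubation about 10 min or longer; IC50 fitted from emission ratio, compounds in duplicate at 10 μM down to 0.01 μM.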

wildtype Kras / hSOS1 = target: T1, wildtype Kras / hSOS1 (Homo sapiens, UniProt P01116); assay: HTRF assay, wildtype Kras / SOS1 interaction; assay type: binding; settings: compound nos. 401-703; read-out: IC50 against wildtype Kras
T1 construct: made in house; host or cells: E. coli BL21 (DE3)
T1 sequence (P01116 1-188 isoform P01116-2): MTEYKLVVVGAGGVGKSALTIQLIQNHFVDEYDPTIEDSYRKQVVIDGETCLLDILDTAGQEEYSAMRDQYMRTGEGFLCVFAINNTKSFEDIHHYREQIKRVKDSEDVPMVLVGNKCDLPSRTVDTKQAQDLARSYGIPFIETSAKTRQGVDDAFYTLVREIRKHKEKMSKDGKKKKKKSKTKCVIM
Method in brief: as §1

GST-tagged K-Ras mutant / His-tagged hSOS1, sequence (P01116 whole entry G12D, form open): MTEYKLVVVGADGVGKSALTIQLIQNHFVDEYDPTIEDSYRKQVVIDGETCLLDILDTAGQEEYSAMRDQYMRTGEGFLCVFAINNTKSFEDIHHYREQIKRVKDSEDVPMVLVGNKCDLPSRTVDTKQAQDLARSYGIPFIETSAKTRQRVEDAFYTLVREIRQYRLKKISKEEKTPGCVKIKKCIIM

SMILES | IC50 [1] [nM] | IC50 (wildtype Kras / hSOS1) [nM]
CN(C)C/C=C/C(=O)N1CC2(CCCN(c3nc(OC[C@@]45CCCN4C[C@H](F)C5)nc4c(F)c(-c5ccc(F)c6sc(N)c(C#N)c56)c(Cl)cc34)C2)C1 [Compound 522, 2-amino-4-(6-chloro-4-(2-((E)-4-(dimethylamino)but-2-enoyl)-2,6-diazaspiro[3.5]nonan-6-yl)-8-fluoro-2-(((2R,7aS)-2-fluorotetrahydro-1H-pyrrolizin-7a(5H)-yl)methoxy)quinazolin-7-yl)-7-fluorobenzo[b]thiophene-3-carbonitrile] | < 500 | > 500
CN(C)CC1(COc2nc(N3CC4CCC(C3)N4)c3cc(Cl)c(-c4ccc(F)c5sc(N)nc45)c(F)c3n2)CC1 [Compound 523, 4-(4-(3,8-diazabicyclo-[3.2.1]octan-3-yl)-6-chloro-2-((1-((dimethylamino)-methyl)cyclopropyl)meth-oxy)-8-fluoroquinazolin-7-yl)-7-fluorobenzo[d]thiazol-2-amine] | < 500 | > 500
COC1CCCCN(c2nc(OC[C@@H]3CCCN3C)nc3c(F)c(-c4cccc5sc(N)nc45)c(Cl)cc23)C1 (stereo partly drawn) [Compound 524, 4-(6-chloro-8-fluoro-4-(3-methoxyazepan-1-yl)-2-(((S)-1-methylpyrrolidin-2-yl)methoxy)quinazolin-7-yl)benzo[d]thiazol-2-amine] | < 500 | > 500
N#Cc1c(N)sc2c(F)ccc(-c3c(Cl)cc4c(N5CCCC6(CNC6)C5)nc(OC[C@@]56CCCN5C[C@H](F)C6)nc4c3F)c12 [Compound 526, 2-amino-4-(6-chloro-8-fluoro-2-(((2R,7aS)-2-fluorotetrahydro-1H-pyrrol-izin-7a(5H)-yl)methoxy)-4-(2,6-diazaspiro[3.5]nonan-6-yl)quinazolin-7-yl)-7-fluorobenzo[b]thiophene-3-carbonitrile] | < 500 | > 500
Nc1nc2c(-c3c(Cl)cc4c(N5C[C@H]6CCNCC[C@H]6C5)nc(OC[C@@]56CCCN5C[C@H](F)C6)nc4c3F)ccc(F)c2s1 [Compound 528, 4-(6-chloro-8-fluoro-2-(((2R,7aS)-2-fluorotetra-hydro-1H-pyrrolizin-7a(5H)-yl)methoxy)-4-((3aR,8aS)-octahydropyr-rolo[3,4-d]azepin-2(1H)-yl)quinazolin-7-yl)-7-fluorobenzo[d]thiazol-2-amine] | < 500 | > 500
N#Cc1n[nH]c2c(F)ccc(-c3c(Cl)cc4c(N5CC6CCC(C5)N6)nc(OC[C@@]56CCCN5C[C@H](F)C6)nc4c3F)c12 [Compound 531, 4-(4-(3,8-diazabicyclo-[3.2.1]octan-3-yl)-6-chloro-8-fluoro-2-(((2R,7aS)-2-fluorotetrahydro-1H-pyrrol-izin-7a(5H)-yl)methoxy)-quin-azolin-7-yl)-7-fluoro-1H-indazole-3-carbonitrile] | > 500 | > 500
Nc1nc2c(-c3c(Cl)cc4c(N5CCCC6(CCNC6)C5)nc(OC[C@@]56CCCN5C[C@H](F)C6)nc4c3F)ccc(F)c2s1 (stereo partly drawn) [Compound 532, 4-(6-chloro-8-fluoro-2-(((2R,7aS)-2-fluorotetra-hydro-1H-pyrrolizin-7a(5H)-yl)methoxy)-4-(2,7-diaza-spiro[4.5]decan-7-yl)quin-azolin-7-yl)-7-fluorobenzo-[d]thiazol-2-amine] | < 500 | > 500
OC1Cc2ccccc2N(c2ccc3c(N4CCCCCC4)nc(OCC45CCCN4CCC5)nc3c2F)C1 (stereo not shown) [Compound 534, 1-(4-(azepan-1-yl)-8-fluoro-2-((tetrahydro-1H-pyrrol-izin-7a(5H)-yl)methoxy)-quinazolin-7-yl)-1,2,3,4-tetrahydroquinolin-3-ol] | > 500 | > 500
Fc1c(-c2cccc3ncccc23)c(Cl)cc2c(N3CCCCCC3)nc(OCC34CCCN3CCC4)nc12 [Compound 540, 4-(azepan-1-yl)-6-chloro-8-fluoro-7-(quinolin-5-yl)-2-((tetrahydro-1H-pyrrolizin-7a(5H)-yl)methoxy)quin-azoline] | > 500 | > 500
Nc1nc2c(-c3c(Cl)cc4c(N5CC6CCC(C5)N6)nc(OCC56CCCN5CCC6)nc4c3F)cc(F)cc2s1 [Compound 542, 4-(4-(3,8-diazabicyclo-[3.2.1]octan-3-yl)-6-chloro-8-fluoro-2-((tetrahydro-1H-pyrrolizin-7a(5H)-yl)meth-oxy)quinazolin-7-yl)-6-fluorobenzo[d]thiazol-2-amine] | < 500 | > 500
Nc1nc2c(-c3c(Cl)cc4c(N5CCCCC(N)C5)nc(OC[C@@]56CCCN5C[C@H](F)C6)nc4c3F)ccc(F)c2s1 (stereo partly drawn) [Compound 543, 4-(4-(3-aminoazepan-1-yl)-6-chloro-8-fluoro-2-(((2R,7aS)-2-fluorotetra-hydro-1H-pyrrolizin-7a(5H)-yl)methoxy)quinazolin-7-yl)-7-fluorobenzo[d]thiazol-2-amine] | < 500 | > 500
Cc1ccc2oc(N)nc2c1-c1c(Cl)cc2c(N3CC4CCC(C3)N4)nc(OC[C@@]34CCCN3C[C@H](F)C4)nc2c1F [Compound 546, 4-(4-(3,8-diazabicyclo-[3.2.1]octan-3-yl)-6-chloro-8-fluoro-2-(((2R,7aS)-2-fluorotetrahydro-1H-pyrrol-izin-7a(5H)-yl)methoxy)-quinazolin-7-yl)-5-methyl-benzo[d]oxazol-2-amine] | < 500 | > 500
Nc1nc2c(-c3c(Cl)cc4c(N5CC6COCC(C5)N6)nc(OC[C@@]56CCCN5C[C@H](F)C6)nc4c3F)ccc(F)c2s1 [Compound 547, 4-(4-(3-oxa-7,9-diaza-bicyclo[3.3.1]nonan-7-yl)-6-chloro-8-fluoro-2-(((2R,7aS)-2-fluorotetra-hydro-1H-pyrrolizin-7a(5H)-yl)methoxy)quinazolin-7-yl)-7-fluorobenzo[d]thiazol-2-amine] | < 500 | > 500

Second part, the molecule after the results:

IC50 [1] [nM] | IC50 (wildtype Kras / hSOS1) [nM] | SMILES
> 500 | > 500 | Nc1nc2ccccc2n1-c1ccc2c(N3CC4CCC(C3)N4)nc(OCC34CCCN3CCC4)nc2c1F [Compound 525, 1-(4-(3,8-diazabicyclo-[3.2.1]octan-3-yl)-8-fluoro-2-((tetrahydro-1H-pyrrol-izin-7a(5H)-yl)methoxy)-quin-azolin-7-yl)-1H-benzo-[d]imidazol-2-amine]
> 500 | > 500 | Nc1c(-c2c(Cl)cc3c(N4CC5CCC(C4)N5)nc(OCC45CCCN4CCC5)nc3c2F)cccc1C(F)(F)F [Compound 527, 2-(4-(3,8-diazabicyclo-[3.2.1]octan-3-yl)-6-chloro-8-fluoro-2-((tetrahydro-1H-pyrrolizin-7a(5H)-yl)meth-oxy)quinazolin-7-yl)-6-(trifluoromethyl)aniline]
> 500 | > 500 | CN1CCCC1CCn1nc(N2CC3CCC(C2)N3)c2ccc(-c3cc(O)cc4ccccc34)c(F)c2c1=O (stereo not shown) [Compound 529, 4-(3,8-diazabicyclo[3.2.1]-octan-3-yl)-8-fluoro-7-(3-hydroxynaphthalen-1-yl)-2-(2-(1-methylpyrrolidin-2-yl)ethyl)phthalazin-1(2H)-one]
> 500 | > 500 | COc1nc2c(N3CC4CCC(C3)N4)nc(OC[C@@]34CCCN3C[C@H](F)C4)nc2cc1-c1cc(O)cc2ccccc12 [Compound 533, 4-(4-(3,8-diazabicyclo-[3.2.1]octan-3-yl)-2-(((2R,7aS)-2-fluorotetra-hydro-1H-pyrrolizin-7a(5H)-yl)methoxy)-6-methoxypyrido-[3,2-d]-pyrimidin-7-yl)naphthalen-2-ol]
< 500 | > 500 | CN1CCC[C@H]1COc1nc(N2CCCC(C(=O)O)CC2)c2cc(Cl)c(-c3cccc4sc(N)nc34)c(F)c2n1 (stereo partly drawn) [Compound 535, 1-(7-(2-aminobenzo[d]thia-zol-4-yl)-6-chloro-8-fluoro-2-(((S)-1-methylpyrrolidin-2-yl)methoxy)quinazolin-4-yl)azepane-4-carboxylic acid]
> 500 | > 500 | Fc1c(Br)ccc2c(N3CC4CCC(C3)N4)nc(OC[C@@]34CCCN3C[C@H](F)C4)nc12 [Compound 537, 4-(3,8-diazabicyclo[3.2.1]-octan-3-yl)-7-bromo-8-fluoro-2-(((2R,7aS)-2-fluorotetrahydro-1H-pyrrol-izin-7a(5H)-yl)methoxy)-quinazoline]
> 500 | > 500 | OC1Cc2ccccc2N(c2ccc3c(N4CC5CCC(C4)N5)nc(OCC45CCCN4CCC5)nc3c2F)C1 (stereo not shown) [Compound 538, 1-(4-(3,8-diazabicyclo-[3.2.1]octan-3-yl)-8-fluoro-2-((tetrahydro-1H-pyrrol-izin-7a(5H)-yl)methoxy)-quinazolin-7-yl)-1,2,3,4-tetrahydro-quinolin-3-ol]
> 500 | > 500 | Nc1nccc2c(-c3c(Cl)cc4c(N5CC6CCC(C5)N6)nc(OCC56CCCN5CCC6)nc4c3F)cccc12 [Compound 541, 5-(4-(3,8-diazabicyclo-[3.2.1]octan-3-yl)-6-chloro-8-fluoro-2-((tetrahydro-1H-pyrrolizin-7a(5H)-yl)meth-oxy)quinazolin-7-yl)iso-quinolin-1-amine]
> 500 | > 500 | COc1nc2c(N3CC4CCC(C3)N4)nc(OCC34CCCN3CCC4)nc2cc1-c1cccc2cccc(Cl)c12 [Compound 544, 4-(3,8-diazabicyclo[3.2.1]-octan-3-yl)-7-(8-chloronaph-thalen-1-yl)-6-methoxy-2-((tetrahydro-1H-pyrrolizin-7a(5H)-yl)methoxy)pyrido-[3,2-d]pyrimidine]
> 500 | > 500 | COc1nc2c(N3C[C@H]4CC[C@@H](C3)N4)nc(OCC34CCCN3CCC4)nc2cc1-c1cc(O)cc2ccccc12 [Compound 545, 4-(4-((1R,5S)-3,8-diazabicyclo[3.2.1]octan-3-yl)-6-methoxy-2-((tetrahydro-1H-pyrrolizin-7a(5H)-yl)methoxy)pyrido[3,2-d]pyrimidin-7-yl)naphthalen-2-ol]
